Laboratory results as given in patent US9440978B2, “Imidazolo-, oxazolo-, and thiazolopyrimidine modulators of TRPV1” (Janssen Pharmaceutica NV, priority 2007, dated 2016).
One block for each compound: values may come before it.

Legend:
human TRPV1 = molecular target: T1, human TRPV1 (Homo sapiens, UniProt Q8NER1); test: Block of capsaicin-induced Ca2+ influx, human assay (hTRPV1/HEK293, FLIPR); assay type: cell-based; conditions: HEK293 cells transfected with human TRPV1; 150 nM capsaicin challenge; mean; > value = solubility limit in assay medium
T1 construct: expressed in transfected cells; host or cells: HEK293

rat TRPV1 = molecular target: T2, rat TRPV1 (Rattus norvegicus, UniProt O35433); test: Block of capsaicin-induced Ca2+ influx, rat assay (rTRPV1/HEK293, FLIPR); assay type: cell-based; conditions: HEK293 cells transfected with rat TRPV1; capsaicin challenge; mean; > value = solubility limit in assay medium; read-out: Rat IC50
T2 construct: expressed in transfected cells; host or cells: HEK293
In short: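 HEK293 cells expressing rat TRPV1, Fluo-3 loaded, preincubated 30 min with compound in 20 μM Ca2+ buffer (serial three-fold dilutions, usually from 10 μM, duplicate). Capsaicin-evoked fluorescence change over 100 s measured on FLIPR; IC50 by non-linear regression, averaged across runs.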

T1 sequence (Q8NER1 whole entry): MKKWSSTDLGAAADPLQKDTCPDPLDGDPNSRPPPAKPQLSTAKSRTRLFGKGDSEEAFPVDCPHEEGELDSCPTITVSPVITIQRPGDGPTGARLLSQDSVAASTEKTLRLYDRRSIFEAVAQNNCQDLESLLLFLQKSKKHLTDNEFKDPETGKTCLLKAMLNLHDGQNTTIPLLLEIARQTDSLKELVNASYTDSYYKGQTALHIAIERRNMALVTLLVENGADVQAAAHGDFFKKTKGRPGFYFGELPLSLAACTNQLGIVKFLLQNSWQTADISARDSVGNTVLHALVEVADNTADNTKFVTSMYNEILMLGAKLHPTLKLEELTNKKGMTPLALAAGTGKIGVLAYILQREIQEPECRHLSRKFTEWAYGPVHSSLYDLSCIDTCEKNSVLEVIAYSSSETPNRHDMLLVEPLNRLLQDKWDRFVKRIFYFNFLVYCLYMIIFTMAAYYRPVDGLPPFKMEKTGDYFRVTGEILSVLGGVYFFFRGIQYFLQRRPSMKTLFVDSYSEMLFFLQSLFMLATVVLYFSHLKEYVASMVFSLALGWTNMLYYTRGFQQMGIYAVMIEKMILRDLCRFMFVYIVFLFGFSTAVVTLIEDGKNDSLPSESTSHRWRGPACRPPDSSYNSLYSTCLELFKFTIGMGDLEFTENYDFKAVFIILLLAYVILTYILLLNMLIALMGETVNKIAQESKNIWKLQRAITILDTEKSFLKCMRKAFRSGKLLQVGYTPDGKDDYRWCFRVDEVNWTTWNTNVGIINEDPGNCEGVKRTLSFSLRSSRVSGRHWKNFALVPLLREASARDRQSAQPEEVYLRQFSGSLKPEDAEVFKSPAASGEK
T2 sequence (O35433 whole entry): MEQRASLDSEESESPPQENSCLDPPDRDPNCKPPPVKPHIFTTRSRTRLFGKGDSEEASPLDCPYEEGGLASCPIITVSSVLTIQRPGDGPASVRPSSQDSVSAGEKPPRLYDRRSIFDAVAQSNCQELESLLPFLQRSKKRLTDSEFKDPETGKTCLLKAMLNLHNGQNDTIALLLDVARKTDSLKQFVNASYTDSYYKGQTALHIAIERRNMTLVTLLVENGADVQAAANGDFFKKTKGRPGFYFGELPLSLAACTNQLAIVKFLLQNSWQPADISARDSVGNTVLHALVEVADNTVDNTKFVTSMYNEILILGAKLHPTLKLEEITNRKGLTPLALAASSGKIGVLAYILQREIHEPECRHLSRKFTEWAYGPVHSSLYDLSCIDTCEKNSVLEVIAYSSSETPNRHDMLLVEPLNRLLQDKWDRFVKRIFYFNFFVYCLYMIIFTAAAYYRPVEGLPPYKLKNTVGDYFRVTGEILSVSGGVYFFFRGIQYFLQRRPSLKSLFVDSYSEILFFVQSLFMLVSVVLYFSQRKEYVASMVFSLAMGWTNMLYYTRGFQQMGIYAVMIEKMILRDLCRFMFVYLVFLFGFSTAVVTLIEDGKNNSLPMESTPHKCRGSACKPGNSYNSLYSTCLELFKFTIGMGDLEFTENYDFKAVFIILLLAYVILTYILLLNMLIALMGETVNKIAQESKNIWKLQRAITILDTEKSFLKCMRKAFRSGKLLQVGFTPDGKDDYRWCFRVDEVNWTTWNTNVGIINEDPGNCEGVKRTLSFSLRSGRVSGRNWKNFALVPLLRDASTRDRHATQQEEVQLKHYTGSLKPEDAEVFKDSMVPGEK

IC50 (human TRPV1): 23 nM | IC50 (rat TRPV1): 15 nM
Structure (SMILES): Cc1nc(Nc2ccc(C(F)(F)F)cc2)c2nc(Cc3c(Cl)cccc3Cl)sc2n1 [Example 6, [2-(2,6-Dichloro-benzyl)-5-methyl-thiazolo[5,4-d]pyrimidin-7-yl]-(4-trifluoromethyl-phenyl)-amine]

IC50 (human TRPV1): 50 nM | IC50 (rat TRPV1): 21 nM
Structure (SMILES): CC(Nc1nc(Nc2ccc(C(F)(F)F)cc2)c2nc(Cc3c(Cl)cccc3Cl)sc2n1)c1ccccn1 (centres unmarked) [Example 87, 2-(2,6-Dichlorobenzyl)-N^5-(1-pyridin-2-ylethyl)-N^7-[4-(trifluoromethyl)phenyl][1,3]thiazolo[5,4-d]pyrimidine-5,7-diamine]

IC50 (human TRPV1): 72 nM | IC50 (rat TRPV1): 32 nM
Structure (SMILES): CS(=O)(=O)c1nc(Nc2ccc(C(F)(F)F)cc2)c2nc(Cc3c(Cl)cccc3Cl)sc2n1 [Example 62, [2-(2,6-Dichloro-benzyl)-5-methanesulfonyl-thiazolo[5,4-d]pyrimidin-7-yl]-(4-trifluoromethyl-phenyl)-amine]

IC50 (human TRPV1): 54 nM | IC50 (rat TRPV1): 11 nM
Structure (SMILES): CC(C)(C)c1ccc(Nc2ncnc3sc(Cc4c(Cl)cccc4Cl)nc23)cc1 [Example 25, N-(4-tert-Butylphenyl)-2-(2,6-dichlorobenzyl)[1,3]thiazolo[5,4-d]pyrimidin-7-amine]

IC50 (human TRPV1): 193 nM | IC50 (rat TRPV1): 44 nM
Structure (SMILES): FC(F)(F)Oc1ccc(Nc2ncnc3sc(Cc4c(Cl)cccc4Cl)nc23)cc1 [Example 44, 2-(2,6-Dichlorobenzyl)-N-[4-(trifluoromethoxy)phenyl][1,3]thiazolo[5,4-d]pyrimidin-7-amine]

IC50 (human TRPV1): 964 nM | IC50 (rat TRPV1): 1040 nM
Structure (SMILES): CCN1CCCC1CNc1nc(Nc2ccc(C(F)(F)F)cc2)c2nc(Cc3c(Cl)cccc3Cl)sc2n1 (centres unmarked) [Example 88, 2-(2,6-Dichlorobenzyl)-N^5-[(1-ethylpyrrolidin-2-yl)methyl]-N^7-[4-(trifluoromethyl)phenyl][1,3]thiazolo[5,4-d]pyrimidine-5,7-diamine]

IC50 (human TRPV1): 1030 nM | IC50 (rat TRPV1): 158 nM
Structure (SMILES): Cc1nc(Nc2ccc(C(F)(F)F)cn2)c2nc(Cc3c(Cl)cccc3Cl)sc2n1 [Example 97, [2-(2,6-Dichloro-benzyl)-5-methyl-thiazolo[5,4-d]ovrimidin-7-yl]-(5-trifluoromethyl-hyridin-2-yl)-amine]

IC50 (human TRPV1): 40 nM | IC50 (rat TRPV1): 32 nM
Structure (SMILES): FC(F)(F)c1ccc(Nc2ncnc3sc(Cc4ccccc4Cl)nc23)cc1 [Example 20, 2-(2-Chlorobenzyl)-N-[4-(trifluoromethyl)phenyl][1,3]thiazolo[5,4-d]pyrimidin-7-amine]

IC50 (human TRPV1): 252 nM | IC50 (rat TRPV1): 88 nM
Structure (SMILES): FC(F)(F)c1ccc(Nc2ncnc3sc(Cc4cccc(Cl)c4)nc23)cc1 [Example 54, 2-(3-Chlorobenzyl)-N-[4-(trifluoromethyl)phenyl][1,3]thiazolo[5,4-d]pyrimidin-7-amine]

IC50 (human TRPV1): > 6670 nM | IC50 (rat TRPV1): 3560 nM
Structure (SMILES): FC(F)(F)c1ccc(Nc2nc(N3CCOCC3)nc3sc(Cc4c(Cl)cccc4Cl)nc23)cc1 [Example 63, [2-(2,6-Dichloro-benzyl)-5-morpholin-4-yl-thiazolo[5,4-d]pyrimidin-7-yl]-(4-trifluoromethyl-phenyl)-amine]

IC50 (human TRPV1): 8900 nM | IC50 (rat TRPV1): 4490 nM
Structure (SMILES): CC(C)(C(N)=O)c1ccc(Nc2ncnc3sc(Cc4c(Cl)cccc4Cl)nc23)cc1 [Example 47, 2-(4-{[2-(2,6-Dichlorobenzyl)[1,3]thiazolo[5,4-d]pyrimidin-7-yl]amino}phenyl)-2-methylpropanamide]

Continued, compound first:

Structure (SMILES): Cc1cccc(C)c1Cc1nc2c(Nc3ccc(Br)cc3)ncnc2s1 [Example 56, N-(4-Bromophenyl)-2-(2,6-dimethylbenzyl)[1,3]thiazolo[5,4-d]pyrimidin-7-amine]
IC50 (human TRPV1): 714 nM | IC50 (rat TRPV1): 475 nM

Structure (SMILES): FC(F)(F)c1ccc(Nc2ncnc3sc(Cc4cccc(Cl)c4)nc23)cn1 [Example 53, 2-(3-Chlorobenzyl)-N-[6-(trifluoromethyl)pyridin-3-yl][1,3]thiazolo[5,4-d]pyrimidin-7-amine]
IC50 (human TRPV1): 336 nM | IC50 (rat TRPV1): 118 nM

Structure (SMILES): Clc1cccc(Cl)c1Cc1nc2c(Nc3ccc(Br)cc3)ncnc2s1 [Example 41, N-(4-Bromophenyl)-2-(2,6-dichlorobenzyl)[1,3]thiazolo[5,4-d]pyrimidin-7-amine]
IC50 (human TRPV1): 32 nM | IC50 (rat TRPV1): 29 nM

Structure (SMILES): Fc1ccc(Nc2ncnc3sc(Cc4c(Cl)cccc4Cl)nc23)cc1 [Example 39, 2-(2,6-Dichlorobenzyl)-N-(4-fluorophenyl)[1,3]thiazolo[5,4-d]pyrimidin-7-amine]
IC50 (human TRPV1): 225 nM | IC50 (rat TRPV1): 189 nM

Structure (SMILES): FC(F)(F)c1ccc(Nc2ncnc3sc(Cc4ccccc4I)nc23)cc1 [Example 4, [2-(2-Iodo-benzyl)-thiazolo[5,4-d]pyrimidin-7-yl]-(4-trifluoromethyl-phenyl)-amine]
IC50 (human TRPV1): 22 nM | IC50 (rat TRPV1): 8 nM

Structure (SMILES): COc1ccc(Nc2ncnc3sc(Cc4c(Cl)cccc4Cl)nc23)cc1 [Example 37, 2-(2,6-Dichlorobenzyl)-N-(4-methoxyphenyl)[1,3]thiazolo[5,4-d]pyrimidin-7-amine]
IC50 (human TRPV1): 328 nM | IC50 (rat TRPV1): 241 nM

Structure (SMILES): CS(=O)(=O)c1ccc(Nc2ncnc3sc(Cc4ccccc4C(F)(F)F)nc23)cc1 [Example 51, N-[4-(Methylsulfonyl)phenyl]-2-[2-(trifluoromethyl)benzyl][1,3]thiazolo[5,4-d]pyrimidin-7-amine]
IC50 (human TRPV1): 202 nM | IC50 (rat TRPV1): 39 nM

Structure (SMILES): FC(F)(F)c1ccc(Nc2ncnc3sc(Cc4c(Cl)cccc4Cl)nc23)nc1 [Example 94, [2-(2,6-Dichloro-benzyl)-thiazolo[5,4-d]pyrimidin-7-yl]-(5-trifluoromethyl-pyridin-2-yl)-amine]
IC50 (human TRPV1): 924 nM | IC50 (rat TRPV1): 246 nM
